Measured values as given in article PMC9115709, “TIMP‐1‐expressing breast tumor spheroids for the evaluation of drug penetration and efficacy” (Bioengineering & Translational Medicine, 2021).
pIC50: −log10 of the molar value. Like-named read-outs stand apart in the source and are kept apart here.

Tests used:
[1] = tested on: Multicellular spheroids with hASC and MDA-MB-231; experiment: Permeability value (PV) in the 3D tumor model; settings: PV = EffA:M - 1/2(EffASC + EffMDA), Equation (4)
Procedure: Therefore, we defined the permeability value (PV) of each drug as the difference in efficacy in multicellular and monocellular spheroids, as determined by Equation (4).
After treating the drug with spheroids for 2 days, the efficacy of the drug was evaluated by CellTiter‐Glo® 3D Cell Viability Assay (Promega). […] (4) PV=EffA:M−1/2EffASC+EffMDA.

[2] = tested on: MDA-MB-231 monocellular spheroids; experiment: Drug efficacy in MDA-MB-231 monocellular spheroids; type: cell-based, human; settings: drug at IC50 of MDA-MB-231 monolayer cells, 2 days
Procedure: (§1) To form 3D multicellular tumor spheroids, cells was trypsinized and suspended in the growth media. Stromal cells and breast cancer cells were plated with a density of 5 × 10^3 cells /25 μL into 96‐well plate precoated with poly‐HEMA, respectively, resulting in 1 × 10^4 cells exist per each well. After seeding, the plate was centrifuged for 2 min at 1000 rpm to collect the cells in the center of the well. Fifty microliters of 10% Matrigel® Basement Membrane Matrix (Corning, NY, USA) solution diluted in media was gently added into the plate on ice to prevent matrigel from gelation. Monocellular spheroids were generated by a single culture of stromal cells or breast cancer cells. Cells were seeded with a density of 1 × 10^4 cells per well with 50 μL of 10% matrigel on a poly‐HEMA‐coated plate. Then, the plate with cells and matrigel was centrifuged at 1000 rpm for 2 min, and incubated for 48 h at 37°C with 5% CO2.

[3] = tested on: MDA-MB-231 cells; experiment: IC50 in MDA-MB-231 monolayer cells; type: cell-based, human
[4] = tested on: hASC monocellular spheroids; experiment: Drug efficacy in hASC monocellular spheroids; type: cell-based, human; settings: drug at IC50 of MDA-MB-231 monolayer cells, 2 days
Procedure: as §1

[5] = tested on: Multicellular spheroids with hASC and MDA-MB-231; experiment: Drug efficacy in hASC and MDA-MB-231 multicellular (A:M) spheroids, CellTiter-Glo 3D; type: cell-based, human; settings: drug at IC50 of MDA-MB-231 monolayer cells, 2 days
Procedure: as §1

[6] = tested on: hBMSC-co-cultured spheroids (B:M); experiment: Drug penetration (intrinsic fluorescence) in hBMSC-co-cultured tumor spheroids; type: cell-based, human; settings: 10 μM, 48 h, fluorescence microscopy
Procedure: (§2) We next tested whether ECM deposition on the surface of spheroids would affect the penetration of anticancer drugs and their efficacy. Three types of 3D multicellular tumor spheroids were formed and treated with 10 μM doxorubicin, epirubicin, or topotecan, which are chemotherapeutic agents for various tumors, including breast cancer, for an additional 48 h.
as §1
(§3) Spheroids were transferred to an opaque‐walled multiwall plate and analyzed by ATP‐based cell viability assays using Real Time‐Glo™ MT Cell Viability Assay (Promega, Madison, WI, USA) according to the manufacturer's protocol. […] Necrotic cells of spheroids were analyzed in Real Time‐Glo™ Annexin V Necrosis Assay (Promega) following the manufacturer's instructions. Luminescence was measured using a Glomax discovery multi Microplate Reader (Glomax discovery, Promega) with an integration time of 0.25–1.0 s per well.

[7] = tested on: hDF-co-cultured spheroids (F:M); experiment: Drug penetration (intrinsic fluorescence) in hDF-co-cultured tumor spheroids; type: cell-based, human; settings: 10 μM, 48 h, fluorescence microscopy
Procedure: as §2, §1, §3

[8] = tested on: 3D multicellular tumor spheroids; experiment: Necrosis in tumor spheroids, Real Time-Glo Annexin V Necrosis Assay; type: cell-based, human; settings: A:M spheroids with control siRNA or siTIMP-1 hASCs
[9] = tested on: hASC-co-cultured spheroids (A:M); experiment: Drug penetration (intrinsic fluorescence) in hASC-co-cultured tumor spheroids; type: cell-based, human; settings: for Amount of drug inside the spheroids compared to other spheroids: 10 μM, 48 h, fluorescence microscopy, vs hBMSC- or hDF-co-cultured spheroids; for Amount of drug penetrating the spheroids, TIMP-1 silencing vs control siRNA: hASCs transfected with siTIMP-1, 48 h treatment
Procedure: as §2, §1, §3

[10] = tested on: hASC-co-cultured spheroids (A:M); experiment: Drug efficacy in multicellular tumor spheroids, Real Time-Glo MT Cell Viability Assay; type: cell-based, human; settings: hASCs transfected with siTIMP-1, 48 h treatment
Procedure: as §3

[11] = Homo sapiens, MDA-MB-231 monolayer cells, read-out: MDA-MB-231 IC50

SMILES | Experiment's PV #1 [1] | Experiment's PV #2 [1] | Experiment's PV #3 [1] | pIC50 [3, 11] | pIC50 ([3]; MDA-MB-231 monolayer cells, read-out: MDA-MB-231 IC50) | Distribution of drug inside the spheroids [6] | Distribution of drug inside the spheroids [7] | Amount of drug inside the spheroids compared to other spheroids [9] | Amount of drug penetrating the spheroids, TIMP-1 silencing vs control siRNA [9] | MDA spheroid Efficacy (EffMDA, %) [2] [%] | hASC spheroid Efficacy (EffASC, %) [4] [%] | A:M spheroid Efficacy (EffA:M, %) [5] [%] | Necrotic cells after drug treatment [8] | Drug efficacy, TIMP-1-silenced hASCs vs control [10] | pIC50 ([3]; Homo sapiens, MDA-MB-231, read-out: MDA-MB-231 IC50)
CN(C)c1nc(N(C)C)nc(N(C)C)n1 [Altretamine] | 0.025 | 0.062 | -0.012 | 4.19 |  |  |  |  |  | 36.883 | 41.038 |  |  |  | 
CC#C[C@]1(O)CC[C@H]2[C@@H]3CCC4=CC(=O)CCC4=C3[C@@H](c3ccc(N(C)C)cc3)C[C@@]21C [Mifepristone] |  |  |  | 4.81 |  |  |  |  |  | 46.672 | 91.524 |  |  |  | 
CO[C@@]12[C@H](COC(N)=O)C3=C(C(=O)C(C)=C(N)C3=O)N1C[C@@H]1N[C@@H]12 [Mitomycin-c] | -0.071 | -0.097 | -0.045 | 4.76 |  |  |  |  |  | 53.401 | 64.309 |  |  |  | 
C/C(=C\c1csc(C)n1)[C@@H]1C[C@@H]2O[C@]2(C)CCC[C@H](C)[C@H](O)[C@@H](C)C(=O)C(C)(C)[C@@H](O)CC(=O)O1 [Patupilone, Patupilone (epothilone-b)] | -0.039 | -0.067 | -0.010 | 4.48 |  |  |  |  |  | 23.781 | 34.560 |  |  |  | 
CNCc1ccc(-c2[nH]c3cc(F)cc4c3c2CCNC4=O)cc1 [Rucaparib] |  |  |  | 4.14 |  |  |  |  |  | 92.185 | 99.818 |  |  |  | 
Cn1ncnc1[C@H]1c2n[nH]c(=O)c3cc(F)cc(c23)N[C@@H]1c1ccc(F)cc1 [Talazoparib] | 0.051 | 0.057 | 0.046 | 4.06 |  |  |  |  |  | 75.508 | 99.742 |  |  |  | 
COc1ccc(N(C)c2nc(C)nc3ccccc23)cc1 [Verubulin] | 0.039 | 0.029 | 0.085 |  |  |  |  |  |  | 5.173 | 24.939 |  |  |  | 8.00

Now from value to compound, other results behind:

Experiment's PV #1 [1] | Experiment's PV #2 [1] | Experiment's PV #3 [1] | pIC50 [3, 11] | pIC50 ([3]; MDA-MB-231 monolayer cells, read-out: MDA-MB-231 IC50) | Distribution of drug inside the spheroids [6] | Distribution of drug inside the spheroids [7] | Amount of drug inside the spheroids compared to other spheroids [9] | Amount of drug penetrating the spheroids, TIMP-1 silencing vs control siRNA [9] | SMILES | MDA spheroid Efficacy (EffMDA, %) [2] [%] | hASC spheroid Efficacy (EffASC, %) [4] [%] | A:M spheroid Efficacy (EffA:M, %) [5] [%] | Necrotic cells after drug treatment [8] | Drug efficacy, TIMP-1-silenced hASCs vs control [10] | pIC50 ([3]; Homo sapiens, MDA-MB-231, read-out: MDA-MB-231 IC50)
-0.114 | -0.075 | -0.095 |  | 4.14 |  |  |  |  | CC1(C)[C@@H](O[C@H]2O[C@H](C(=O)O)[C@@H](O)[C@H](O)[C@H]2O[C@@H]2O[C@H](C(=O)O)[C@@H](O)[C@H](O)[C@H]2O)CC[C@]2(C)[C@H]3C(=O)C=C4[C@@H]5C[C@@](C)(C(=O)O)CC[C@]5(C)CC[C@@]4(C)[C@]3(C)CC[C@@H]12 [Ammonium-glycyrrhizinate] | 40.204 | 33.753 | 27.510 |  |  | 
 |  |  | 5.67 |  |  |  |  |  | COC(=O)[C@]12CCC(C)(C)C[C@H]1[C@H]1C(=O)C=C3[C@@]4(C)C=C(C#N)C(=O)C(C)(C)[C@@H]4CC[C@@]3(C)[C@]1(C)CC2 [Bardoxolone-methyl] | -35.997 | 38.156 |  |  |  | 
0.000 | 0.001 | 0.000 | 4.02 |  |  |  |  |  | CCCCCOC(=O)Nc1nc(=O)n([C@@H]2O[C@H](C)[C@@H](O)[C@H]2O)cc1F [Capecitabine] | 99.873 | 99.895 |  |  |  | 
 |  |  |  |  | distributed throughout | distributed throughout | significant reduction | significantly increased | COc1cccc2c1C(=O)c1c(O)c3c(c(O)c1C2=O)C[C@@](O)(C(=O)CO)C[C@@H]3O[C@H]1C[C@H](N)[C@H](O)[C@H](C)O1 [Doxorubicin, doxorubicin] |  |  |  | Few necrotic cells | significantly increased | 
-0.096 | -0.017 | -0.056 | 5.80 |  | distributed throughout | distributed throughout | significant reduction | significantly increased | COc1cccc2c1C(=O)c1c(O)c3c(c(O)c1C2=O)C[C@@](O)(C(=O)CO)C[C@@H]3O[C@H]1C[C@H](N)[C@@H](O)[C@H](C)O1 [Epirubicin] | 23.696 | 45.548 |  | Few necrotic cells | significantly increased | 
0.029 | 0.043 | 0.016 | 4.49 |  |  |  |  |  | COc1cc([C@@H]2c3cc4c(cc3[C@@H](O[C@@H]3O[C@@H]5CO[C@@H](C)O[C@H]5[C@H](O)[C@H]3O)[C@H]3COC(=O)[C@H]23)OCO4)cc(OC)c1O [Etoposide] | 64.897 | 73.263 |  |  |  | 
-0.047 | -0.071 | -0.023 | 5.62 |  |  |  |  |  | CC(=O)O[C@H]1C(=O)[C@@]2(C)[C@H]([C@H](OC(=O)c3ccccc3)[C@]3(O)C[C@H](OC(=O)[C@H](O)[C@@H](NC(=O)c4ccccc4)c4ccccc4)C(C)=C1C3(C)C)[C@]1(OC(C)=O)CO[C@@H]1C[C@@H]2O [Paclitaxel] | 72.690 | 97.404 |  |  |  | 
 |  |  | 6.09 |  |  |  |  |  | CC[C@@]1(O)C(=O)OCc2c1cc1n(c2=O)Cc2cc3c([N+](=O)[O-])cccc3nc2-1 [Rubitecan] | 25.373 | 17.266 |  |  |  | 
0.031 | 0.035 | 0.027 | 5.73 |  |  |  |  |  | CCc1c2c(nc3ccc(O)cc13)-c1cc3c(c(=O)n1C2)COC(=O)[C@]3(O)CC [SN38, 7-ethyl-10-hydroxycamptothecin] | 58.491 | 60.449 |  |  |  | 
-0.060 | -0.020 | -0.100 | 5.74 |  |  |  |  |  | CC[C@]1(O)C[C@@H]2CN(CCc3c([nH]c4ccccc34)[C@@](C(=O)OC)(c3cc4c(cc3OC)N(C)[C@H]3[C@@](O)(C(=O)OC)[C@H](OC(C)=O)[C@]5(CC)C=CCN6CC[C@]43[C@@H]65)C2)C1 [Vinblastine] | 9.274 | 25.299 |  |  |  | 
 |  |  |  |  | distributed throughout | distributed throughout | significant reduction | significantly increased | CC[C@@]1(O)C(=O)OCc2c1cc1n(c2=O)Cc2cc3c(CN(C)C)c(O)ccc3nc2-1 [topotecan] |  |  |  | Few necrotic cells | significantly increased | 
